Data published in US12403121B2, “Anticancer rocaglamide derivatives” (priority 2018, dated 2025).

Columns and labels:
[1] = tested on: osteosarcoma PDX; test: Osteosarcoma PDX model (NCH-OS-7); type: in vivo, NSG mouse; settings: 3 mg/kg IP every other day
Text: (§1) To generate PDX models, the Nationwide Children's Hospital Institutional Review Board approved the Human Subjects Protocol for the acquisition of surgically-removed tumor specimens from patients and informed patient consents were obtained. Shortly after resection, fresh tumor tissues with their histological types confirmed by a specialized pathologist were placed in Dulbecco's-modified Eagle (DME) medium (Invitrogen) and brought to the research laboratory. A piece of tumor fragment was implanted subcutaneously on the dorsal right flank area in an eight-to-ten week-old immunodeficient mouse under anesthesia. Tumors were allowed to grow until established, at which time the established PDX tumors were repeatedly passed from one animal to the next or cryopreserved. For Roc treatment, actively-growing PDXs for a Ewing sarcoma (NCH-EWS-2), an osteosarcoma (NCH—OS-7), and an alveolar rhabdomyosarcoma (NCH-ARMS-2) were excised and cut into 5-mm pieces. Each tumor piece was re-implanted into an NSG mouse and tumor growth was monitored. Once noted, the tumor sizes in the axial plane at its greatest dimension (L) and the orthogonal short dimension (S) were measured twice weekly using a Fowler Ultra-Cal Electronic Caliper. Approximated tumor volumes were calculated using the formula V=(L×S^2)/2. […]

[2] = tested on: rhabdomyosarcoma PDX; test: Alveolar rhabdomyosarcoma PDX model (NCH-ARMS-2); type: in vivo, NSG mouse; settings: 3 mg/kg IP every other day
Text: as §1

[3] = tested on: STS26T cells; test: Western blots of treated MPNST cells; type: cell-based, human; settings: 1 or 2 IC50
Method: FIGS. 2A and 2B provide images showing that DDR and Roc increase caspase and PARP cleavage and elevated the levels of γH2AX while decreasing the expression of AKT and ERKs in MPNST cells. (A) Protein lysates prepared from STS26T cells treated for 3 days with 1 or 2 IC50 of DDR or Roc were analyzed by Western blots for the expression of various apoptosis-related proteins and mitogenic kinases AKT and ERK1/2. GAPDH served as a loading control. (B) Western blot analysis was performed on lysates from STS26T cells treated for 1 and 2 days with 1 or 2 IC50 of DDR for the expression of the DNA-damage response biomarker phosphorylated H2A.X (γH2A.X). As a positive control, lysates from HMS-97 human malignant schwannoma cells irradiated with 4 Grays (Gy) of X-ray were used.
(§2) Subconfluent cells were treated with the indicated doses of Roc or DDR for 24-72 hours and then harvested in cell lysis buffer (Cell Signaling Technology) containing 1 mM phenylmethylsufonylfluoride and protease inhibitor cocktail (Sigma-Aldrich). The protein content in cleared lysates was quantitated using the microBCA assay (ThermoFisher). Equal amounts of protein were run in sodium dodecyl sulfate-polyacrylamide gels and electrotransferred onto Immobilon-FL PVDF membranes (Millipore). The antibodies used were directed against: MDR1/ABCB1 (#13978), insulin-like growth factor-1 receptor β subunit (IGF-1Rβ; #9750), AKT (#9272), ERK1/2 (#4695), glyceraldehyde-3-phosphate dehydrogenase (GAPDH; #5174), caspase-3 (#9662), caspase-7 (#9492), cleaved caspase-7 (#9491), poly(ADP-ribose) polymerase (PARP; #9532), cleaved PARP (#5625), and phospho-histone H2A.X (pH2A.X[Ser′^39]; #9718; all from Cell Signaling Technology), NKX2.2 (sc-514161), LSD1 (sc-136174), and survivin (sc-17779; Santa Cruz Biotechnology), and FLI1 (ab15289) and cleaved caspase-3 (CC3; ab32042; Abeam). Protein bands were detected using IRDye® infrared fluorescent dye-labeled secondary antibodies and scanning on an Odyssey CLx imaging system (LI-COR Biosciences) using the appropriate fluorescent channel at a resolution of 84 μm.
To confirm induction of apoptosis in rocaglamide-treated MPNST cells, the inventors analyzed protein expression of several markers important for this process. […] A concomitant decrease in the amounts of intact caspases 3 and 7 and PARP was observed, consistent with the enhanced cleavage of these apoptotic markers and possibly due to direct effects of these rocaglamides on protein translation. Likewise, the levels of the pro-survival kinases AKT and ERK1/2 were diminished in rocaglamide-treated MPNST cells.

[4] = tested on: TC32 Ewing sarcoma, 143B osteosarcoma, and RD rhabdomyosarcoma cells; test: Western blots of treated sarcoma cells; type: cell-based
Method: FIGS. 7A-7C provide images showing DDR and Roc reduce multiple signaling proteins important for the growth and survival of sarcoma cells. Lysates prepared from TC32 Ewing sarcoma (A), 143B osteosarcoma (B), and RD rhabdomyosarcoma (C) cells were treated 1 and 2 days with the indicated concentrations of DDR or Roc and analyzed by Western blotting for the expression of various oncogenic driver proteins. GAPDH was used as a loading control.
as §2
To further examine the molecular mechanisms underlying the antiproliferative effects of rocaglamides, the inventors treated TC32 Ewing sarcoma, 143B osteosarcoma, and RD rhabdomyosarcoma cells with 1- or 2-IC50 dose of DDR or rocaglamide for 1-2 days followed by Western blotting for several known drivers of cell survival and proliferation. […] They also observed reduction of the IGF-1Rβ levels in rocaglamide-treated MPNST cells. In addition, Roc and DDR decreased the levels of AKT, ERKs, cyclin D1 and survivin in treated TC32, 143B, and RD cells (FIG. 7). Intriguingly, the oncogenic fusion protein EWS-FLI1, which acts as an aberrant transcription factor in Ewing sarcoma, was not affected in Roc- and DDR-treated TC32 Ewing sarcoma cells (FIG. 7A). […] However, the expression of lysine demethylase 1 (LSD1), which modulates EWS-FLI1 transcriptional activity (Sankar et al., Oncogene, 32:5089-5100 (2013)), and NKX2.2, an EWS-FL11-regulated gene necessary for oncogenic transformation (Smith et al., Cancer Cell, 9:405-416 (2006)), were diminished by these rocaglamides in TC32 cells (FIG. 7A).

[5] = Maximum tolerated dose of Roc in mice; type: in vivo; settings: every other day

For `COc1ccc([C@@]23Oc4cc(OC)cc(OC)c4[C@]2(O)[C@H](O)[C@H](C(=O)N(C)C)[C@H]3c2ccccc2)cc1` [Roc, rocaglamide], the “reduction of average tumor size compared to vehicle” value [1] was about 80%, the “reduction of tumor growth” value [2] was about 70% and the “levels of γH2AX” value ([3]; STS26T MPNST cells) was “elevated”. The “cleavage of caspases 3 and 7 and PARP” value ([3]; STS26T cells, 3 days) was “increased cleavage”, the “expression of AKT and ERKs” value ([3]; STS26T cells, 3 days) was “decreasing” and the “levels of the β subunit of IGF-1R” value ([4]; 1- or 2-IC50 dose, 1-2 days, all three sarcoma cell lines) was “reliably reduced”. For the same compound, the “levels of AKT, ERKs, cyclin D1 and survivin” value ([4]; TC32, 143B, and RD cells, 1- or 2-IC50 dose, 1-2 days) was “decreased”, the “EWS-FLI1 fusion protein level” value ([4]; TC32 Ewing sarcoma cells) was “not affected” and the “expression of LSD1 and NKX2.2” value ([4]; TC32 cells) was “diminished”. For the same compound, the “maximum tolerated dose (MTD)” value ([5]; IP) was 4 mg/kg and the “maximum tolerated dose (MTD)” value ([5]; oral gavage) was 1.2 mg/kg.
